Measurements taken from PubChem BioAssay AID2060353 (Molecular Pharmacology Branch, DTP, NCI, 2025).
pIC50: −log10 of the molar value.

Test system: 521955-158-R2-J5-PDC spheroids with stroma, growth inhibition
Assay: Anticancer human tumor 521955-158-R2-J5-PDC patient-derived pancreatic carcinoma cell line growth inhibition [TAK]
Conditions: for pIC50: curve of first compound; for viability, T/C: stronger effect = lower value
In short: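 Drug combinations, each paired with TAK-243 or ipatasertib, were tested on multi-cell spheroids of 60% malignant cells, 25% HUVEC and 15% hMSC. Top concentrations were at or near the clinical Cmax (10 microM if undetermined), decreasing by half-log; viability is given as % test/control.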

[1] = second compound 0.3 µM, first compound 0.0316 µM
[2] = second compound 0.3 µM, first compound 0.1 µM
[3] = second compound 0.3 µM, first compound 0.316 µM
[4] = second compound 0.3 µM, first compound 1 µM
[5] = second compound 0.949 µM, first compound 0.0316 µM
[6] = second compound 0.949 µM, first compound 0.1 µM
[7] = second compound 0.949 µM, first compound 0.316 µM
[8] = second compound 0.949 µM, first compound 1 µM
[9] = second compound 3 µM, first compound 0.0316 µM
[10] = second compound 3 µM, first compound 0.1 µM
[11] = second compound 3 µM, first compound 0.316 µM
[12] = second compound 3 µM, first compound 1 µM
[13] = second compound 9.49 µM, first compound 0.0316 µM
[14] = second compound 9.49 µM, first compound 0.1 µM
[15] = second compound 9.49 µM, first compound 0.316 µM
[16] = second compound 9.49 µM, first compound 1 µM
[17] = second compound 30 µM, first compound 0.0316 µM
[18] = second compound 30 µM, first compound 0.1 µM
[19] = second compound 30 µM, first compound 0.316 µM
[20] = second compound 30 µM, first compound 1 µM
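Further: spheroids exposed to drugs for seven days before readout.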
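Wherever viability, T/C is given: 100% = DMSO vehicle control viability.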

SMILES	pIC50 (second compound 0.3 µM)	pIC50 (second compound 0.949 µM)	pIC50 (second compound 3 µM)	pIC50 (second compound 9.49 µM)	pIC50 (second compound 30 µM)	viability, T/C [1]	viability, T/C [2]	viability, T/C [3]	viability, T/C [4]	viability, T/C [5]	viability, T/C [6]	viability, T/C [7]	viability, T/C [8]	viability, T/C [9]	viability, T/C [10]	viability, T/C [11]	viability, T/C [12]	viability, T/C [13]	viability, T/C [14]	viability, T/C [15]	other results
COc1c(OCCCN2CCOCC2)ccc2c3n(c(=NC(=O)c4cnc(N)nc4)nc12)CCN3 + CC(C)NCC(C(=O)N1CCN(c2ncnc3c2C(C)CC3O)CC1)c1ccc(Cl)cc1	7.73	8.30	> 8.50	> 8.50	> 8.50	40.2%	25.3%	7.66%	7.14%	31.4%	15.8%	8.04%	7.27%	17.3%	10.1%	7.86%	7.56%	12.8%	8.78%	7.47%	viability, T/C (second compound 0.3 µM, first compound 0.00316 µM): 69.3%; viability, T/C (second compound 0.3 µM, first compound 0.01 µM): 60.2%; viability, T/C (second compound 0.949 µM, first compound 0.00316 µM): 51%; viability, T/C (second compound 0.949 µM, first compound 0.01 µM): 48.7%; viability, T/C (second compound 3 µM, first compound 0.00316 µM): 41%; viability, T/C (second compound 3 µM, first compound 0.01 µM): 28%; viability, T/C (second compound 9.49 µM, first compound 0.00316 µM): 23.8%; viability, T/C (second compound 9.49 µM, first compound 0.01 µM): 16.5%; viability, T/C [16]: 7.49%; viability, T/C (second compound 30 µM, first compound 0.00316 µM): 19.2%; viability, T/C (second compound 30 µM, first compound 0.01 µM): 13.1%; viability, T/C [17]: 8.7%; viability, T/C [18]: 7.22%; viability, T/C [19]: 6.67%; viability, T/C [20]: 5.5%
Cc1nc(NC(=O)N2CCCC2C(N)=O)sc1-c1ccnc(C(C)(C)C(F)(F)F)c1 (stereo not given) + CC(C)NCC(C(=O)N1CCN(c2ncnc3c2C(C)CC3O)CC1)c1ccc(Cl)cc1	6.04	6.27	6.80	6.91	> 7.50	109%	84.3%	58.2%	49%	76.2%	69%	52.5%	45%	78.7%	54%	40.6%	31.3%	70.7%	55.4%	29.5%	viability, T/C (second compound 0.3 µM, first compound 3.16 µM): 45.1%; viability, T/C (second compound 0.3 µM, first compound 10 µM): 30.1%; viability, T/C (second compound 0.949 µM, first compound 3.16 µM): 34.8%; viability, T/C (second compound 0.949 µM, first compound 10 µM): 27.7%; viability, T/C (second compound 3 µM, first compound 3.16 µM): 22.3%; viability, T/C (second compound 3 µM, first compound 10 µM): 15.2%; viability, T/C [16]: 19.6%; viability, T/C (second compound 9.49 µM, first compound 3.16 µM): 13.7%; viability, T/C (second compound 9.49 µM, first compound 10 µM): 8.86%; viability, T/C [17]: 48%; viability, T/C [18]: 42.7%; viability, T/C [19]: 23.9%; viability, T/C [20]: 17.2%; viability, T/C (second compound 30 µM, first compound 3.16 µM): 11%; viability, T/C (second compound 30 µM, first compound 10 µM): 6.07%
